Assay results taken from US4755529A, “Guaiazulene derivatives and their methods of use” (Harbor Branch Oceanographic Institution Inc., priority 1986, dated 1988).
In brackets after ≈: the same amount, converted by molar mass.

Legend:
[1] = system: P388 mouse leukemia cells; experiment: P388 mouse leukemia cell assay; format: cell-based; conditions: 48 hours
Protocol: P388 mouse leukemia cells are grown in Dulbecco MEM medium with 10% horse serum 4 mM, glutamine, and 20 μg/ml gentamycin (Biologos, Inc.). Cells are incubated in 10% CO2 and subcultured 2 times per week.
1. Add composition to each well of a 24-well plate or tube and allow solvent to evaporate to dryness.
2. Add 2 ml (1.2×10^5) cells to each well or tube and mix.
3. Incubate in 10% CO2 at 37° for 48 hours.
4. Read plates with an inverted microscope, scoring activity from 1+ to 4+ as follows: ND (not detectable), >90%, 1+, 75-90%; 2+, 50-74%; 3+, 25-49%; 4+, <25% of control growth. Alternatively, scoring may be expressed as IC50 which represents the minimum concentration of the composition required to inhibit 50% of the cell growth on the plate. Cell counts are performed on each tube and results are reported as percent of control.

[2] = system: mixed lymphocytes (BALB/c+C57BL/6); experiment: Mixed lymphocyte reaction (MLR) assay; format: cell-based, murine; conditions: Mus musculus, percent of positive control, 3H-thymidine, immunostimulatory criterion 150% or greater, read-out: Immunomodulatory activity, % Reference; for activity at 5 µg/mL: 5 ug/ml; for activity at 50 µg/mL: 50 ug/ml
Protocol: The assay method was uded to identify immune response modifiers of the compositions of Formulae I-III corresponding to composition 1-3 of the samples.
Aseptically removed spleens from BALB/c and C57BL/6 mice were homogenized, separately, in RPMI 1640 medium with 10% fetal calf serum, 2% L-glutamine,15 mM HEPES, 1% antibiotic-antimycotic solution and 25 μg/ml gentamycin (GIBCO). Lymphocytes were then derived by differential cetrifugation after red blood cell lysing and serial cell washing in complete media. Cells were adjusted to equal concentrations (2.5×10^6 cells/ml) and combined after removal of negative control aliquots. Incubation conditions for the cells were 5% CO2, 95% air at 37° C.
1. Add composition to each well of a 96-well plate and allow solvent to evaporate to dryness, if not aqueous.
2. Add 0.2 ml mixed lymphocytes (BALB/c+C57BL/6) to each well and mix.
3. Incubate in 5% CO2 at 37° C. for 86 hours.
4. Pulse wells with 0.1 ml ^3 H-thymidine (1 uCi/well).
5. Incubate in 5% CO2 at 37° C. for 6 hours.
6. Harvest plates and add 2 ml scintillant to each vial containing a filter disc.
7. Count vials in a liquid scintillation counter (Beckman).
8. Average replicate counts and report data as percent of positive control. The criteria for immunostimulatory effectiveness is a value of 150%, or greater, above control values for mixed lymphocytes in culture.

C. albicans = experiment: Minimum inhibitory concentration (MIC), anti-Candida assay; format: cell-based; conditions: approximately 1000 cells/mL, 37° C. overnight
Protocol: Candida albicans: C. albicans (Ca) is grown on Sabouraud dextrose agar to produce single colonies one of which is used to inoculate Sabouraud dextrose broth. The broth is incubated at 37° C. with shaking at 200 rpm for 18 hrs., the resultant culture is frozen with 10% (v/v) glycerol at -80° C. and used as the inoculum for the anti-Candida assay. Two-fold dilutions of the drug are prepared in 50 μL volumes of Sabouraud dextrose broth using 96-well microtiter plates. An inoculum of C. albicans is added in a small volume to give a cell density of approximately 1000 cells/mL. Plates are incubated at 37° C. overnight. 10 uL of Triphenyl tetrazolium chloride (1% w/v) is then added to each well; a further 2 hour incubation results in a deep coloration of the microorganism.

IC50 [1] [µg/mL] | MIC (C. albicans) [µg/mL] | Structure (SMILES) | activity at 5 µg/mL [2] [%] | activity at 50 µg/mL [2] [%]
35 (≈ 165 µM) | 50 (≈ 236 µM) | Cc1cc2c(cc3c(C)ccc1-3)C(C)CO2 (stereo not drawn) [Composition (1), dihydrolinderazulene] | 255 | 1
35 (≈ 176 µM) | 25 (≈ 126 µM) | Cc1ccc(C(C)C)cc2c(C)ccc1-2 [Composition (2), guaiazulene] | 284 | 351
50 (≈ 238 µM) | 12.5 (≈ 59.4 µM) | Cc1cc2occ(C)c2cc2c(C)ccc1-2 [Composition (3), linderazulene] | 155 | 19
